Measured values: paper PMC10384639, “Increased In Vivo Exposure of N-(4-Hydroxyphenyl) Retinamide (4-HPR) to Achieve Plasma Concentrations Effective against Dengue Virus” (Pharmaceutics, 2023)
pEC50: −log10 of the molar value. Values joined by “and” are separate entries in the source; they are usually repeats but may differ in a detail not shown here. Equal values may be shown once. Read-outs that look alike come from different tables or passages of the source.

Key:
[1] = Single-dose IV PK of 4-HPR in mice with and without ABT; format: in vivo, male C57Bl/6 mice; conditions: for half-life / AUC(0-inf) / clearance / Vd: plasma; for half-life: read-out: Apparent t1/2 (converted); for AUC(0-inf): read-out: Plasma AUC0-inf; for Vd: read-out: Plasma VSS
Description: C57Bl/6 mice (22.6–28.7 g) having access to food and water ad libitum throughout the pre- and post-dose sampling period were dosed with 4-HPR either orally by gavage (2–10 mL/kg, depending upon formulation) or IV by bolus injection into the lateral tail vein (50 μL/animal, 2 mL/kg), and blood samples were collected up to 49 h post-dose by either submandibular bleed or terminal cardiac puncture (n = 3–5 mice per timepoint for each formulation) with a maximum of four samples from each mouse. Blood samples were mixed with heparin, potassium fluoride and complete protease inhibitor cocktail (Roche Diagnostics, Mannheim, Germany), centrifuged and supernatant plasma was removed and stored at −80 °C until analysis by LC-MS. Specifics of formulations used in PK experiments are detailed in Supplementary Table S1.
For in vivo CYP inhibition experiments, repeat oral doses of ABT (50 mg/kg b.i.d commencing 4 h before 4-HPR administration, 5 mL/kg by gavage) were administered according to a regimen shown to maintain ongoing CYP inhibition. Blood samples were collected from ABT-treated mice for up to 72 h after dosing 4-HPR.
For 4-HPR quantification, proteins were precipitated from plasma samples using acetonitrile (2-fold volume ratio) prior to analysis using a Waters Acquity Ultra-High Performance Liquid Chromatography (UHPLC) system coupled to a Waters Xevo TQ MS system (Waters Corporation, Milford, MA, USA). Chromatographic separation was performed using a C8 reverse phase column (Ascentis Express RP C8, 50 × 2.1 mm, 2.7 μm, Merck KGaA, Darmstadt, Germany) and a 3 μL injection volume. Gradient elution (methanol-water gradient with 0.05% formic acid) was performed at a flow rate of 0.4 mL/min, cycle time of 4 min, with detection by positive electrospray ionisation in multiple-reaction monitoring mode. Then, 4-HPR standards (10,000–0.5 ng/mL) were prepared in blank plasma, with diazepam as an internal standard (10 μL of 5 μg/mL in 50% acetonitrile/water per sample). For 4-HPR, the retention time was 2.97 min, m/z transition 392.23 > 161.15, cone voltage 30 V and CID 20 V.
The dose administered to each mouse was calculated on the basis of the pre-dose body weight, the volume of formulation administered, and the 4-HPR concentration in the formulation. The plasma concentration versus time profile was defined by the average plasma concentration at each sample time, and PK parameters were calculated using non-compartmental methods (PKSolver Version 2.0) using the average dose administered to the dosing group.
To illustrate the differences in 4-HPR plasma exposure profiles that would be expected in mice upon repeat-dose administration (b.i.d, 10 h/14 h at 20 mg/kg) of the different formulations, profiles were simulated using a simple compartmental PK approach. Initially, a linear 2-compartment model was fitted (PKSolver, Version 2.0) to the mean plasma concentration-time profile obtained after bolus IV administration of 4-HPR. The parameter estimates thus obtained (i.e., V1, k10, k12 and k21—see Supplementary Table S2) were considered to define the systemic disposition of 4-HPR and were fixed during simulation of the oral profiles. Oral profiles were simulated using a differential equation-based compartmental model scripted in Berkeley Madonna (version 8.3.1.8). Systemic disposition parameters were fixed as described above, under the assumption that the post-absorption distribution and elimination of 4-HPR was independent of the formulation administered. Bioavailability was fixed at the value determined by non-compartmental analysis, and the first order rate constant for compound absorption was manually varied until the simulated concentration-time profile was in close agreement with the experimental concentration-time data obtained after single-dose administration of pre-dispersed lipid formulation. […] These were obtained by setting the bioavailability (F) to the value determined for each formulation by non-compartmental analysis.

[2] = Equilibrium solubility of 4-HPR in excipients and lipid-based formulations; format: physicochemical
Description: Excipients were weighed directly into glass vials at the indicated concentrations, mixed thoroughly, then transferred to Eppendorf tubes and loaded with an excess of 4-HPR. Formulations were then heated to 37 °C, vortexed extensively (initially every hour) and agitated with a stirrer and incubated at 37 °C in a shaking incubator. Periodically (every 1–3 days), undissolved drug was removed from the formulation by centrifugation (20 min at 2100× g, 37 °C) and 20 mg of supernatant was transferred to new tubes for quantification by UHPLC (stored at −20 °C), with the remaining formulation vortexed and agitated vigorously incubated at 37 °C in a shaking incubator until the next sampling. Samples were dissolved in 1 mL 1:1 chloroform:methanol, then diluted 1:100 in acetonitrile.
In this case, the UHPLC assay used a Shimadzu Nexera X2 UHPLC system (Shimadzu Corporation, Kyoto, Japan), with chromatographic separation on a C18 reverse phase column (Kinetex 2.6 μm C18 100 Å, LC Column 50 × 2.1 mm, Phenomenex Inc., Torrance, CA, USA) at 30 °C, with samples stored at 10 °C in the autosampler until injection (3 μL volume). Isocratic elution (79.95% acetonitrile, 19.95% H2O, 0.1% formic acid) was performed at a flow rate of 0.3 mL/min, with absorbance measured by the photodiode array detector. Then, 4-HPR standards (50–0.521 μg/mL) were created by successive serial dilution of a 50 μg/mL stock standard in acetonitrile, with area under curve at absorbance of 365 nm used to generate a standard curve using LabSolutions software V.5.82.

[3] = Plasma protein binding by Rapid Equilibrium Dialysis; format: in vitro ADME; conditions: 37 °C, corrected for dilution; for % Bound / Fraction Unbound 4-HPR: RED 24 h; for fraction unbound at 24 h, 2000 ng/mL: pH 7.4, RED 24 h, read-out: % Bound
Description: (§1) Protein binding of 4-HPR was assessed in human (pooled, Innovative Research Inc., Novi, MI, USA) and mouse (collected in-house from male C57BL6 mice) plasma via Rapid Equilibrium Dialysis (RED) using pre-saturated dialysis units as previously. Briefly, RED inserts were pre-saturated overnight with 400 ng/mL 4-HPR in PBS, after which solutions were removed and discarded, and 300 µL aliquots of diluted human or mouse plasma (10% v/v in pH 7.4 PBS) containing 4-HPR (2000 ng/mL) were added to the donor chamber of the RED inserts (n = 4/matrix) and dialysed against 500 µL of PBS (containing 40 ng/mL 4-HPR). During the 24 h dialysis period, the RED system was sealed with a gas impermeable film, and the plate was maintained at 37 °C under ambient atmosphere in an orbital plate shaker set at 800 rpm (ThermoMixer C; Eppendorf, Hamburg, Germany). At the end of the dialysis period, aliquots were taken from each donor and dialysate chamber to obtain post-dialysis measures of the total and unbound 4-HPR concentrations, respectively. The measured pH of pre- and post-dialysis donor matrix and dialysate buffer was within pH 7.4 ± 0.1.
Donor and dialysate samples were processed and analysed using a matrix matching approach, and all samples were stored frozen at −80 °C until analysis by LC-MS. Compound binding was assessed on the basis of the measured concentrations in dialysate and donor samples at the end of the dialysis period, assuming that the system was at steady state by 24 h. As the binding assay was performed using diluted plasma, data were corrected for the dilution factor to give a binding value for neat plasma via an established approach which accounts for the shift in equilibria that occurs with protein dilution.

[4] = Stability in diluted plasma matrix; format: in vitro ADME; conditions: diluted human plasma (10% v/v in pH 7.4 PBS)
Description: as §1

[5] = Stability in diluted plasma matrix; format: in vitro ADME; conditions: diluted mouse plasma (10% v/v in pH 7.4 PBS)
DENV [6] = conditions: cited from earlier work
DENV [7] = test system: DENV; set-up: method as in PMID 24903662; conditions: b.i.d 20 mg/kg 4-HPR, lethal ADE DENV infection; cited from earlier work
ZIKV = test system: ZIKV; set-up: method as in PMID 33439253; conditions: read-out: In vitro EC50; cited from earlier work
DENV2 = test system: DENV2; set-up: method as in PMID 25313218; conditions: b.i.d 180 mg/kg, AG129 mouse viremia model; cited from earlier work
[8] = male, C57Bl/6, mouse, in vivo, iv
[9] = male, C57Bl/6, mouse, iv, 2 mg/kg, single-dose 2 mg/kg IV, +ABT (50 mg/kg, b.i.d)
[10] = male, C57Bl/6, mouse, iv, 2 mg/kg, single-dose 2 mg/kg IV, −ABT

CC1=C(/C=C/C(C)=C/C=C/C(C)=C/C(=O)Nc2ccc(O)cc2)C(C)(C)CCC1 [4-HPR, N-(4-hydroxyphenyl) retinamide]
Fold increase in exposure with ABT treatment after IV dosage ([1]; IV 2 mg/kg, +ABT versus −ABT): 0.2 fold
V1 (2-compartment model estimate) ([1]; fit to IV data, −ABT): 0.233 L/kg
k21 (2-compartment model estimate) ([1]; fit to IV data, −ABT): 0.561 h⁻¹
k10 (2-compartment model estimate) [1, 8]: 1.20 h⁻¹
k12 (2-compartment model estimate) [1, 8]: 5.42 h⁻¹
half-life [1, 9]: 12.1 h
AUC(0-inf) [1, 9]: 24.5 µM·h
clearance ([1]; male, C57Bl/6, mouse, iv, 2 mg/kg, single-dose 2 mg/kg IV, +ABT (50 mg/kg, b.i.d), read-out: Plasma CL): 3.6 mL/min/kg
Vd [1, 9]: 3.2 L/kg
half-life ([1]; male, C57Bl/6, mouse, iv, 2 mg/kg, single-dose 2 mg/kg IV, −ABT, 10% DMSO, 90% PEG400): 8.1 h
AUC(0-inf) [1, 10]: 21.6 µM·h
clearance ([1]; male, C57Bl/6, mouse, iv, 2 mg/kg, single-dose 2 mg/kg IV, −ABT, read-out: Plasma CL): 4.1 mL/min/kg
Vd [1, 10]: 1.9 L/kg
clearance ([1]; male, C57Bl/6, mouse, iv, observed under both conditions (±ABT), read-out: In vivo systemic clearance): 4.4 mL/min/kg
4-HPR Concentration (equilibrium solubility) ([2]; in Capmul-MCM-EP, 37 °C): 34 mg/g and 34 ± 4.3 mg/g
4-HPR Concentration (equilibrium solubility) ([2]; in Capryol 90, 37 °C): 48 ± 6.0 mg/g
4-HPR Concentration (equilibrium solubility) ([2]; in Captex 355 EP/NF, 37 °C): 14 ± 0.1 mg/g
4-HPR Concentration (equilibrium solubility) ([2]; in Corn oil, 37 °C): 3.9 ± 0.2 mg/g
4-HPR Concentration (equilibrium solubility) ([2]; in Cremophor EL, 37 °C): 10 ± 0.2 mg/g
4-HPR Concentration (equilibrium solubility) ([2]; in Ethanol, 37 °C): 113 mg/g and 113 ± 1.3 mg/g
4-HPR Concentration (equilibrium solubility) ([2]; in Gelucire 44/14, 37 °C): 6.0 ± 0.2 mg/g
4-HPR Concentration (equilibrium solubility) ([2]; in Kolliphor RH 40, 37 °C): 5.5 ± 0.6 mg/g
4-HPR Concentration (equilibrium solubility) ([2]; in Labrasol, 37 °C): 7.3 ± 0.1 mg/g
4-HPR Concentration (equilibrium solubility) ([2]; in Lauroglycol 90, 37 °C): 39 mg/g and 39 ± 1.4 mg/g
4-HPR Concentration (equilibrium solubility) ([2]; in Maisine 35-1, 37 °C): 21 ± 7.6 mg/g
4-HPR Concentration (equilibrium solubility) ([2]; in Maisine CC, 37 °C): 26 ± 1.6 mg/g
4-HPR Concentration (equilibrium solubility) ([2]; in PEG400, 37 °C): 82 ± 0.7 mg/g
4-HPR Concentration (equilibrium solubility) ([2]; in Polysorbate 80, 37 °C): 24 ± 4.9 mg/g
4-HPR Concentration (equilibrium solubility) ([2]; in Soybean Oil, 37 °C): 2.7 ± 0.1 mg/g
4-HPR Concentration (equilibrium solubility) ([2]; in Transcutol, 37 °C): 217 ± 8.8 mg/g
4-HPR Concentration (equilibrium solubility) ([2]; in Tween 85, 37 °C): 71 mg/g and 71 ± 9.1 mg/g
% Bound ([3]; human plasma): > 99.95%
Fraction Unbound 4-HPR ([3]; human plasma): < 0.0005
fraction unbound at 24 h, 2000 ng/mL ([3]; male, C57BL6, mouse plasma diluted to 10% v/v in PBS): < 0.0005
% Bound ([3]; mouse plasma): > 99.95%
Fraction Unbound 4-HPR ([3]; mouse plasma): < 0.0005
fraction unbound at 24 h, 2000 ng/mL ([3]; pooled human plasma diluted to 10% v/v in PBS): < 0.0005
Stability in diluted plasma [4]: no evidence of any degradation
Stability in diluted plasma [5]: no evidence of any degradation
pEC50 (DENV [6]; DENV, read-out: In vitro EC50): 5.70 to 6.00
pEC50 (DENV [6]; all four infectious DENV strains in vitro, read-out: EC50): ~6.00
Protection of infected mice (DENV [7]): 70%
pEC50 (ZIKV): 5.70 to 6.00
Reduction of DENV2 viremia (DENV2): > 50 fold
